Test results from ChEMBL document CHEMBL1131144, “N-Substituted 9beta-methyl-5-(3-hydroxyphenyl)morphans are opioid receptor pure antagonists” (J Med Chem, 1998).
pKi: −log10 of the molar value.

Assays:
[1] = target: Kappa-type opioid receptor (Homo sapiens, UniProt P41145); test: Binding affinity against Opioid receptor kappa 1 using [3H]ethylketocyclazocine as radioligand.
[2] = target: Mu-type opioid receptor (Homo sapiens, UniProt P35372); test: Binding affinity against Opioid receptor mu 1 using [3H]naloxone as radioligand.
[3] = target: Delta-type opioid receptor (Rattus norvegicus, UniProt P33533); test: Binding activity against Opioid receptor delta 1 using [3H]DADLE as radioligand in rat brain membranes.; assay type: cell membranes
[4] = target: Mu-type opioid receptor (Cavia porcellus, UniProt P97266); test: Inhibition of [35S]GTP-gamma-S, binding in guinea pig caudate stimulated by DAMGO (Opioid receptor mu 1); assay type: functional
[5] = target: T1, Kappa-type opioid receptor (Cavia porcellus, UniProt P41144); test: Inhibition of [35S]GTP-gamma-S, binding in guinea pig caudate stimulated by U69,593 in Opioid receptor kappa 1; assay type: functional
[6] = target: T1, Kappa-type opioid receptor; test: Binding activity against kOpioid receptor kappa 1 using [3H]U-69593 as radioligand in guinea pig membranes.; assay type: cell membranes
[7] = target: Mu-type opioid receptor (Rattus norvegicus, UniProt P33535); test: Binding activity against Opioid receptor mu 1 using [3H]DAMGO as radioligand in rat brain membranes.; assay type: cell membranes
[8] = target: T1, Kappa-type opioid receptor; test: Binding activity against Opioid receptor kappa 1 using [3H]U-69593 as radioligand in guinea pig membranes.; assay type: cell membranes

T1 sequence (P41144 whole entry): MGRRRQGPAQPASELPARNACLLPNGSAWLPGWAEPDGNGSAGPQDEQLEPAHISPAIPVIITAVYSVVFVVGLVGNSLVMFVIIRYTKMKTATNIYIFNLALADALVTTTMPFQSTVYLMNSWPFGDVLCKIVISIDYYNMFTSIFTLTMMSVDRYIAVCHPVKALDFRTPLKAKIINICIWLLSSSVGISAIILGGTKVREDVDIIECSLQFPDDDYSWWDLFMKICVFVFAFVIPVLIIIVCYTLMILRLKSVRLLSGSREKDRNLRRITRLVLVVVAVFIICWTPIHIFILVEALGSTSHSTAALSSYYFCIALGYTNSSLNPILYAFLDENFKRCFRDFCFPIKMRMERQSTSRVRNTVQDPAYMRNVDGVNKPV
Delta-type opioid receptor, sequence (P33533 whole entry): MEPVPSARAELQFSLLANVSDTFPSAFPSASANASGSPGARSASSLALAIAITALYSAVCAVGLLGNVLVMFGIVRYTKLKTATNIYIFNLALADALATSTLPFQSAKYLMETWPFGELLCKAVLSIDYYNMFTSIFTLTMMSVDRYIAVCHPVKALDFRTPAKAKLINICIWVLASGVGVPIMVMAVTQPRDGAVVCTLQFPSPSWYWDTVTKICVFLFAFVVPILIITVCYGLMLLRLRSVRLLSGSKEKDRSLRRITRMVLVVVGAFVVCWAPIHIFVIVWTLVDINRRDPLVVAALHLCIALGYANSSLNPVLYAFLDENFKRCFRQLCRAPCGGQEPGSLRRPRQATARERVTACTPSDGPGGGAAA
Mu-type opioid receptor (Rattus norvegicus, UniProt P33535), sequence (P33535 whole entry): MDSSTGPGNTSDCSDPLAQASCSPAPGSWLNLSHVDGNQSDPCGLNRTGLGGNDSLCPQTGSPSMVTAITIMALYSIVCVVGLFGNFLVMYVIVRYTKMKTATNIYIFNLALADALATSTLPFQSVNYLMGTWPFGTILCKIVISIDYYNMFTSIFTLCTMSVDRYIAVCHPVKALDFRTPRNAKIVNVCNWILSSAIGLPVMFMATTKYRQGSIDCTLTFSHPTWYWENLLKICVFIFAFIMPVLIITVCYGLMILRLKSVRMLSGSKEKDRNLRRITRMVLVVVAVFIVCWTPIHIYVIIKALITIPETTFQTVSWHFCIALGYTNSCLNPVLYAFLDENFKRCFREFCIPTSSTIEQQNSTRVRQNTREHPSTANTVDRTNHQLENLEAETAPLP
Mu-type opioid receptor (Cavia porcellus, UniProt P97266), sequence (P97266 whole entry): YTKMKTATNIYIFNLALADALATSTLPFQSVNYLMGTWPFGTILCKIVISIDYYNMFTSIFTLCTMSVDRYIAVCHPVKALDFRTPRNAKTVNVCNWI
Mu-type opioid receptor (Homo sapiens, UniProt P35372), sequence (P35372 whole entry): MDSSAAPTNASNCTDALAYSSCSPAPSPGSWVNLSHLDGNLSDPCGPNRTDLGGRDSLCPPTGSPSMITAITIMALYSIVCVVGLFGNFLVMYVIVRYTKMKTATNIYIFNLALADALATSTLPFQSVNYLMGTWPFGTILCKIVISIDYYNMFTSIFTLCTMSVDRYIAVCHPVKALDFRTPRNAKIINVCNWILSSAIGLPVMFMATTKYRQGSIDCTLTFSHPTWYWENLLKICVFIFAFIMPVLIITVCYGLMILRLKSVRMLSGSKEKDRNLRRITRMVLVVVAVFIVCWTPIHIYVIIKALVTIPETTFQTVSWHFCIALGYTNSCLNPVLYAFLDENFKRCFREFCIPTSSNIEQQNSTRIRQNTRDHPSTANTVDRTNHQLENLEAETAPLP
Kappa-type opioid receptor (Homo sapiens, UniProt P41145), sequence (P41145 whole entry): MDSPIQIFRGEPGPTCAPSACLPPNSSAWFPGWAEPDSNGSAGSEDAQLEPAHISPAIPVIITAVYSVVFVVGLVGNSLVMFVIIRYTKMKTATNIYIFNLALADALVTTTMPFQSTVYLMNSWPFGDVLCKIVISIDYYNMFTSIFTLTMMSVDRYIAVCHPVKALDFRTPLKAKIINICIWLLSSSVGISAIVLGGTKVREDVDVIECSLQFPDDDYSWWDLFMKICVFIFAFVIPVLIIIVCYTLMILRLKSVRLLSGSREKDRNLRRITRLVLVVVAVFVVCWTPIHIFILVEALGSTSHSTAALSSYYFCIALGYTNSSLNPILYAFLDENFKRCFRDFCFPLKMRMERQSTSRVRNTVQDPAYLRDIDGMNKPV

| SMILES | pKi [1] | pKi [2] | pKi [3] | pKi [4] | pKi [5] | pKi [6] | pKi [7] | pKi [8] |
| --- | --- | --- | --- | --- | --- | --- | --- | --- |
| C[C@H]1CN(C)CC[C@@]1(C)c1cccc(O)c1 | 6.08 | 7.10 |  |  |  |  |  |  |
| C[C@H]1C2CCCC1(c1cccc(O)c1)CCN2CCc1ccccc1 (some centres not stated) |  |  | 6.57 | 9.47 | 8.87 | 7.84 | 8.51 |  |
| C[C@H]1C2CCCC1(c1cccc(O)c1)CCN2C (some centres not stated) |  |  | < 5.00 | 7.67 | 6.98 |  | 6.78 | 6.09 |
